This passage reports speed of sound and mass density results from the NIST ThermoML archive (doi:10.1021/acs.jced.8b01204).

The conditions of data set [1]: 101 kPa, Liquid; for speed of sound: Single path-length method; for mass density: Vibrating tube method.
Data set [2] can be described thus: xn = mol fraction of the nth substance listed. To be noted: 101 kPa, Liquid, x2 = 0; for speed of sound: Single path-length method; for mass density: Vibrating tube method.

Molecules are shown by their SMILES. Numbers after ± are expanded uncertainties.

One may read the speed of sound as the propagation velocity of pressure waves in the medium. As a reminder, the mass density is the mass of a sample divided by its volume. `C[N+]1(CC2CO2)CCCC1=O.O=C([O-])c1ccccc1O` (stereo not given) [1-methyl-1-(oxiran-2-ylmethyl)-2-oxopyrrolidinium salicylate]: the speed of sound in data set [1] (293.15 K) is 1634.2 ± 6.3 m/s; in data set [1] (298.15 K), 1614.5 ± 6.3 m/s; in data set [1] (303.15 K) it was 1595.7 ± 6.3 m/s; in data set [1] (308.15 K), 1577.6 ± 6.3 m/s; in data set [1] (313.15 K), 1559.5 ± 6.3 m/s. Further, the mass density is reported as 1209.8 ± 3.2 kg/m3 in data set [1] (293.15 K); 1205.5 ± 3.2 kg/m3 in data set [1] (298.15 K); 1201.3 ± 3.2 kg/m3 in data set [1] (303.15 K); 1197.2 ± 3.2 kg/m3 in data set [1] (308.15 K); 1193 ± 3.2 kg/m3 in data set [1] (313.15 K).
As for `CC(=O)O` [acetic acid], the speed of sound in data set [1] (293.15 K) was 1159.3 ± 6.1 m/s; in data set [1] (298.15 K), 1142.8 ± 6.1 m/s; in data set [1] (303.15 K), 1126.3 ± 6.1 m/s; in data set [1] (308.15 K), 1109.6 ± 6.1 m/s; in data set [1] (313.15 K), 1094.8 ± 6.1 m/s. The mass density in data set [1] (293.15 K) turned out to be 1052.5 ± 3 kg/m3; in data set [1] (298.15 K), 1046.9 ± 3 kg/m3; in data set [1] (303.15 K) it was 1041.4 ± 3 kg/m3; in data set [1] (308.15 K), 1035.8 ± 3 kg/m3; in data set [1] (313.15 K) it was 1030 ± 3 kg/m3.
As to `CC(=O)O` [acetic acid] + C[N+]1(CC2CO2)CCCC1=O.O=C([O-])c1ccccc1O, the speed of sound is on record as 1159.3 ± 6.1 m/s in data set [2] (293.15 K); 1142.8 ± 6.1 m/s in data set [2] (298.15 K); 1126.3 ± 6.1 m/s in data set [2] (303.15 K); 1109.6 ± 6.1 m/s in data set [2] (308.15 K); 1094.8 ± 6.1 m/s in data set [2] (313.15 K). Further, the mass density in data set [2] (293.15 K) is recorded as 1052.5 ± 3 kg/m3; in data set [2] (298.15 K) it was 1046.9 ± 3 kg/m3; in data set [2] (303.15 K), 1041.4 ± 3 kg/m3; in data set [2] (308.15 K), 1035.8 ± 3 kg/m3; in data set [2] (313.15 K), 1030 ± 3 kg/m3.
Consider `CCC(=O)O` [propanoic acid], for which the speed of sound in data set [1] (293.15 K) is 1166.3 ± 6.1 m/s; in data set [1] (298.15 K), 1148.1 ± 6.1 m/s; in data set [1] (303.15 K), 1129.7 ± 6.1 m/s; in data set [1] (308.15 K), 1111.3 ± 6.1 m/s; in data set [1] (313.15 K) it was 1092.8 ± 6.1 m/s. Further, the mass density came out at 993.8 ± 3 kg/m3 in data set [1] (293.15 K); 988.4 ± 3 kg/m3 in data set [1] (298.15 K); 983 ± 3 kg/m3 in data set [1] (303.15 K); 977.6 ± 3 kg/m3 in data set [1] (308.15 K); 972.2 ± 3 kg/m3 in data set [1] (313.15 K).
With `CCC(=O)O` [propanoic acid] + C[N+]1(CC2CO2)CCCC1=O.O=C([O-])c1ccccc1O, the speed of sound in data set [2] (293.15 K) is 1166.3 ± 6.1 m/s; in data set [2] (298.15 K), 1148.1 ± 6.1 m/s; in data set [2] (303.15 K), 1129.7 ± 6.1 m/s; in data set [2] (308.15 K), 1111.3 ± 6.1 m/s; in data set [2] (313.15 K), 1092.8 ± 6.1 m/s. Also, the mass density in data set [2] (293.15 K) amounted to 993.8 ± 3 kg/m3; in data set [2] (298.15 K), 988.4 ± 3 kg/m3; in data set [2] (303.15 K), 983 ± 3 kg/m3; in data set [2] (308.15 K), 977.6 ± 3 kg/m3; in data set [2] (313.15 K) it was 972.2 ± 3 kg/m3.
